Data published in ChEMBL document CHEMBL1926560, “Synthesis, biological evaluation and molecular docking studies of resveratrol derivatives possessing curcumin moiety as potent antitubulin agents” (Bioorg Med Chem, 2012).
Converted amounts (≈) assume the structure as drawn.

How the values were obtained:
B16-F10 [1] = assay: Antiproliferative activity against mouse B16F10 cells after 48 hrs by MTT assay; type: functional, cell-based; conditions: B16-F10, 48 h
HepG2 = assay: Antiproliferative activity against human HepG2 cells after 48 hrs by MTT assay; type: functional, cell-based; conditions: HepG2, 48 h
A549 = assay: Antiproliferative activity against human A549 cells after 48 hrs by MTT assay; type: functional, cell-based; conditions: A549, 48 h
[2] = Inhibition of bovine brain tubulin polymerization after 20 mins by turbidimetry; set-up: species or system Bos taurus
B16-F10 [3] = assay: Cell cycle arrest in mouse B16F10 cells assessed as accumulation at Go/G1 phase at 1 ug/ml after 24 hrs using propidium iodide staining by flow cytometry (reference value: 68 %); type: functional
B16-F10 [4] = assay: Cell cycle arrest in mouse B16F10 cells assessed as accumulation at S phase at 1 ug/ml after 24 hrs using propidium iodide staining by flow cytometry (reference value: 12 %); type: functional
B16-F10 [5] = assay: Cell cycle arrest in mouse B16F10 cells assessed as accumulation at G2/M phase at 1 ug/ml after 24 hrs using propidium iodide staining by flow cytometry (reference value: 18 %); type: functional
B16-F10 [6] = assay: Ratio of resveratrol IC50 to compound IC50 for mouse B16F10 cells; type: functional

COc1ccc(/C=C/c2cc(OC)cc(OC)c2/C=C/C(=O)/C=C/c2ccccc2)cc1
IC50 (B16-F10 [1]): 2.66 µg/mL (≈ 6.24 µM)
IC50 (HepG2): 4.79 µg/mL (≈ 11.2 µM)
IC50 (A549): 5.25 µg/mL (≈ 12.3 µM)
IC50 [2]: 6.28 µg/mL (≈ 14.7 µM)

COc1ccc(/C=C/c2cc(OC)cc(OC)c2/C=C/C(=O)/C=C/c2ccccc2OC)cc1
IC50 (B16-F10 [1]): 2.13 µg/mL (≈ 4.67 µM)
IC50 (HepG2): 5.82 µg/mL (≈ 12.7 µM)
IC50 (A549): 6.49 µg/mL (≈ 14.2 µM)
IC50 [2]: 5.99 µg/mL (≈ 13.1 µM)

COc1ccc(/C=C/c2cc(OC)cc(OC)c2/C=C/C(=O)/C=C/c2cccc(OC)c2)cc1
IC50 (B16-F10 [1]): 2.72 µg/mL (≈ 5.96 µM)
IC50 (HepG2): 8.52 µg/mL (≈ 18.7 µM)
IC50 (A549): 7.66 µg/mL (≈ 16.8 µM)
IC50 [2]: 8.05 µg/mL (≈ 17.6 µM)

COc1ccc(/C=C/C(=O)/C=C/c2c(/C=C/c3ccc(OC)cc3)cc(OC)cc2OC)cc1
IC50 (B16-F10 [1]): 2.4 µg/mL (≈ 5.26 µM)
IC50 (HepG2): 6.99 µg/mL (≈ 15.3 µM)
IC50 (A549): 7.65 µg/mL (≈ 16.8 µM)
IC50 [2]: 2.89 µg/mL (≈ 6.33 µM)

COc1ccc(/C=C/c2cc(OC)cc(OC)c2/C=C/C(=O)/C=C/c2cc(OC)cc(OC)c2)cc1
IC50 (B16-F10 [1]): 0.71 µg/mL (≈ 1.46 µM)
IC50 (HepG2): 1.6 µg/mL (≈ 3.29 µM)
IC50 (A549): 2.1 µg/mL (≈ 4.32 µM)
IC50 [2]: 1.45 µg/mL (≈ 2.98 µM)
Activity (B16-F10 [3]): 28%
Activity (B16-F10 [4]): 14%
Activity (B16-F10 [5]): 52%
Ratio IC50 (B16-F10 [6]): 50

COc1ccc(/C=C/c2cc(OC)cc(OC)c2/C=C/C(=O)/C=C/c2cc(OC)ccc2OC)cc1
IC50 (B16-F10 [1]): 1.3 µg/mL (≈ 2.67 µM)
IC50 (HepG2): 2.78 µg/mL (≈ 5.71 µM)
IC50 (A549): 4.09 µg/mL (≈ 8.41 µM)
IC50 [2]: 2.11 µg/mL (≈ 4.34 µM)

COc1ccc(/C=C/c2cc(OC)cc(OC)c2/C=C/C(=O)/C=C/c2cccc(C)c2)cc1
IC50 (B16-F10 [1]): 1.67 µg/mL (≈ 3.79 µM)
IC50 (HepG2): 4.58 µg/mL (≈ 10.4 µM)
IC50 (A549): 4.08 µg/mL (≈ 9.26 µM)
IC50 [2]: 3.08 µg/mL (≈ 6.99 µM)

COc1ccc(/C=C/c2cc(OC)cc(OC)c2/C=C/C(=O)/C=C/c2ccc(C)cc2)cc1
IC50 (B16-F10 [1]): 1.08 µg/mL (≈ 2.45 µM)
IC50 (HepG2): 2.37 µg/mL (≈ 5.38 µM)
IC50 (A549): 2.69 µg/mL (≈ 6.11 µM)
IC50 [2]: 2.68 µg/mL (≈ 6.08 µM)

COc1ccc(/C=C/c2cc(OC)cc(OC)c2/C=C/C(=O)/C=C/c2ccc(C)c(C)c2)cc1
IC50 (B16-F10 [1]): 1.57 µg/mL (≈ 3.45 µM)
IC50 (HepG2): 4.12 µg/mL (≈ 9.06 µM)
IC50 (A549): 5.33 µg/mL (≈ 11.7 µM)
IC50 [2]: 3.57 µg/mL (≈ 7.85 µM)

COc1ccc(/C=C/c2cc(OC)cc(OC)c2/C=C/C(=O)/C=C/c2ccccc2F)cc1
IC50 (B16-F10 [1]): 2.51 µg/mL (≈ 5.65 µM)
IC50 (HepG2): 4.85 µg/mL (≈ 10.9 µM)
IC50 (A549): 8.01 µg/mL (≈ 18 µM)

COc1ccc(/C=C/c2cc(OC)cc(OC)c2/C=C/C(=O)/C=C/c2ccccc2Cl)cc1
IC50 (B16-F10 [1]): 5.94 µg/mL (≈ 12.9 µM)
IC50 (HepG2): 12.4 µg/mL (≈ 27 µM)
IC50 (A549): 15.2 µg/mL (≈ 33 µM)

COc1ccc(/C=C/c2cc(OC)cc(OC)c2/C=C/C(=O)/C=C/c2ccccc2Br)cc1
IC50 (B16-F10 [1]): 3.09 µg/mL (≈ 6.11 µM)
IC50 (HepG2): 10.2 µg/mL (≈ 20.3 µM)
IC50 (A549): 9.37 µg/mL (≈ 18.5 µM)

COc1ccc(/C=C/c2cc(OC)cc(OC)c2/C=C/C(=O)/C=C/c2cccc(F)c2)cc1
IC50 (B16-F10 [1]): 1.67 µg/mL (≈ 3.76 µM)
IC50 (HepG2): 2.65 µg/mL (≈ 5.96 µM)
IC50 (A549): 4.47 µg/mL (≈ 10.1 µM)

COc1ccc(/C=C/c2cc(OC)cc(OC)c2/C=C/C(=O)/C=C/c2cccc(Cl)c2)cc1
IC50 (B16-F10 [1]): 2.99 µg/mL (≈ 6.49 µM)
IC50 (HepG2): 6.94 µg/mL (≈ 15.1 µM)
IC50 (A549): 8.23 µg/mL (≈ 17.9 µM)

COc1ccc(/C=C/c2cc(OC)cc(OC)c2/C=C/C(=O)/C=C/c2cccc(Br)c2)cc1
IC50 (B16-F10 [1]): 1.97 µg/mL (≈ 3.9 µM)
IC50 (HepG2): 5.52 µg/mL (≈ 10.9 µM)
IC50 (A549): 4.75 µg/mL (≈ 9.4 µM)

COc1ccc(/C=C/c2cc(OC)cc(OC)c2/C=C/C(=O)/C=C/c2ccc(F)cc2)cc1
IC50 (B16-F10 [1]): 1.81 µg/mL (≈ 4.07 µM)
IC50 (HepG2): 4.35 µg/mL (≈ 9.79 µM)
IC50 (A549): 5.83 µg/mL (≈ 13.1 µM)

COc1ccc(/C=C/c2cc(OC)cc(OC)c2/C=C/C(=O)/C=C/c2ccc(Cl)cc2)cc1
IC50 (B16-F10 [1]): 3.17 µg/mL (≈ 6.88 µM)
IC50 (HepG2): 8.29 µg/mL (≈ 18 µM)
IC50 (A549): 11.2 µg/mL (≈ 24.2 µM)

COc1ccc(/C=C/c2cc(OC)cc(OC)c2/C=C/C(=O)/C=C/c2ccc(Br)cc2)cc1
IC50 (B16-F10 [1]): 2.44 µg/mL (≈ 4.83 µM)
IC50 (HepG2): 7.75 µg/mL (≈ 15.3 µM)
IC50 (A549): 7.89 µg/mL (≈ 15.6 µM)

COc1ccc(/C=C/c2cc(OC)cc(OC)c2/C=C/C(=O)/C=C/c2ccc(Cl)cc2Cl)cc1
IC50 (B16-F10 [1]): 2.11 µg/mL (≈ 4.26 µM)
IC50 (HepG2): 4.67 µg/mL (≈ 9.43 µM)
IC50 (A549): 5.05 µg/mL (≈ 10.2 µM)

COc1ccc(/C=C/c2cc(OC)cc(OC)c2/C=C/C(=O)/C=C/c2ccc(Cl)c(Cl)c2)cc1
IC50 (B16-F10 [1]): 2.73 µg/mL (≈ 5.51 µM)
IC50 (HepG2): 9.49 µg/mL (≈ 19.2 µM)
IC50 (A549): 6.99 µg/mL (≈ 14.1 µM)

COc1ccc(/C=C/c2cc(OC)cc(OC)c2/C=C/C(=O)/C=C/c2cc(Cl)cc(Cl)c2)cc1
IC50 (B16-F10 [1]): 2.08 µg/mL (≈ 4.2 µM)
IC50 (HepG2): 3.28 µg/mL (≈ 6.62 µM)
IC50 (A549): 6.18 µg/mL (≈ 12.5 µM)

COc1ccc(/C=C/c2cc(OC)cc(OC)c2/C=C/C(=O)/C=C/c2c(Cl)cccc2Cl)cc1
IC50 (B16-F10 [1]): 3.07 µg/mL (≈ 6.2 µM)
IC50 (HepG2): 9.31 µg/mL (≈ 18.8 µM)
IC50 (A549): 8.93 µg/mL (≈ 18 µM)

COc1ccc(/C=C/c2cc(OC)cc(OC)c2/C=C/C(=O)/C=C/c2ccc(F)c(Cl)c2)cc1
IC50 (B16-F10 [1]): 1.79 µg/mL (≈ 3.74 µM)
IC50 (HepG2): 9.07 µg/mL (≈ 18.9 µM)
IC50 (A549): 4.65 µg/mL (≈ 9.71 µM)

COc1ccc(/C=C/c2cc(OC)cc(OC)c2/C=C/C(=O)/C=C/c2ccc(F)c(F)c2)cc1
IC50 (B16-F10 [1]): 2.23 µg/mL (≈ 4.82 µM)
IC50 (HepG2): 5.97 µg/mL (≈ 12.9 µM)
IC50 (A549): 6.23 µg/mL (≈ 13.5 µM)

COc1ccc(/C=C/c2cc(OC)cc(OC)c2/C=C/C(=O)/C=C/c2cccc(F)c2C)cc1
IC50 (B16-F10 [1]): 1.8 µg/mL (≈ 3.93 µM)
IC50 (HepG2): 2.74 µg/mL (≈ 5.98 µM)
IC50 (A549): 3.98 µg/mL (≈ 8.68 µM)

COc1ccc(/C=C/c2cc(OC)cc(OC)c2/C=C/C(=O)/C=C/c2cc(F)ccc2C)cc1
IC50 (B16-F10 [1]): 0.75 µg/mL (≈ 1.64 µM)
IC50 (HepG2): 1.96 µg/mL (≈ 4.27 µM)
IC50 (A549): 2.32 µg/mL (≈ 5.06 µM)
IC50 [2]: 1.81 µg/mL (≈ 3.95 µM)

COc1ccc(/C=C/c2cc(OC)cc(OC)c2/C=C/C(=O)/C=C/c2cccc(C(F)(F)F)c2)cc1
IC50 (B16-F10 [1]): 3.1 µg/mL (≈ 6.27 µM)
IC50 (HepG2): 5.38 µg/mL (≈ 10.9 µM)
IC50 (A549): 4.97 µg/mL (≈ 10.1 µM)

COc1ccc(/C=C/c2cc(OC)cc(OC)c2/C=C/C(=O)/C=C/c2cc(C(F)(F)F)ccc2Cl)cc1
IC50 (B16-F10 [1]): 1.85 µg/mL (≈ 3.5 µM)
IC50 (HepG2): 6.79 µg/mL (≈ 12.8 µM)
IC50 (A549): 5.96 µg/mL (≈ 11.3 µM)

COc1ccc(/C=C/c2cc(OC)cc(OC)c2/C=C/C(=O)/C=C/c2ccccc2[N+](=O)[O-])cc1
IC50 (B16-F10 [1]): 3.43 µg/mL (≈ 7.27 µM)
IC50 (HepG2): 6.75 µg/mL (≈ 14.3 µM)
IC50 (A549): 11.7 µg/mL (≈ 24.7 µM)

COc1ccc(/C=C/c2cc(OC)cc(OC)c2/C=C/C(=O)/C=C/c2cccc([N+](=O)[O-])c2)cc1
IC50 (B16-F10 [1]): 1.47 µg/mL (≈ 3.12 µM)
IC50 (HepG2): 2.44 µg/mL (≈ 5.17 µM)
IC50 (A549): 3.09 µg/mL (≈ 6.55 µM)

COc1ccc(/C=C/c2cc(OC)cc(OC)c2/C=C/C(=O)/C=C/c2ccc([N+](=O)[O-])cc2)cc1
IC50 (B16-F10 [1]): 2.35 µg/mL (≈ 4.98 µM)
IC50 (HepG2): 6.95 µg/mL (≈ 14.7 µM)
IC50 (A549): 6.69 µg/mL (≈ 14.2 µM)

COc1ccc(/C=C/c2cc(OC)cc(OC)c2/C=C/C(=O)/C=C/c2ccc(C(C)C)cc2)cc1
IC50 (B16-F10 [1]): 2.24 µg/mL (≈ 4.78 µM)
IC50 (HepG2): 4.43 µg/mL (≈ 9.45 µM)
IC50 (A549): 6.06 µg/mL (≈ 12.9 µM)

COc1ccc(/C=C/c2cc(OC)cc(OC)c2/C=C/C(=O)/C=C/c2ccccn2)cc1
IC50 (B16-F10 [1]): 3.12 µg/mL (≈ 7.3 µM)
IC50 (HepG2): 9.17 µg/mL (≈ 21.5 µM)
IC50 (A549): 9.16 µg/mL (≈ 21.4 µM)

COc1ccc(/C=C/c2cc(OC)cc(OC)c2/C=C/C(=O)/C=C/c2cccnc2)cc1
IC50 (B16-F10 [1]): 1.48 µg/mL (≈ 3.46 µM)
IC50 (HepG2): 3.5 µg/mL (≈ 8.19 µM)
IC50 (A549): 3.48 µg/mL (≈ 8.14 µM)

COc1ccc(/C=C/c2cc(OC)cc(OC)c2/C=C/C(C)=O)cc1
IC50 (B16-F10 [1]): 2.88 µg/mL (≈ 8.51 µM)
IC50 (HepG2): 8.41 µg/mL (≈ 24.9 µM)
IC50 (A549): 6.97 µg/mL (≈ 20.6 µM)

COc1cc2c(c(OC)c1OC)-c1ccc(OC)c(=O)cc1[C@@H](NC(C)=O)CC2 [COLCHICINE]
Activity (B16-F10 [3]): 2%
Activity (B16-F10 [4]): 3%
Activity (B16-F10 [5]): 85%
